Assay results taken from patent US20220169643A1, “ESTROGEN RECEPTOR DEGRADING PROTACS” (AstraZeneca AB, priority 2019, published 2022).

Each molecule was assayed against T1, Estrogen Receptor Alpha Ligand binding domain (ER alpha-LBD (GST)) (Homo sapiens, UniProt P03372) (assay: ERα Binding Assay (LanthaScreen TR-FRET competition)). Conditions: competitive displacement of Fluormone ES2 tracer from recombinant human ER alpha-LBD (residues 307-554), 4 hours at room temperature.
T1 construct: made in house
T1 sequence (P03372 307-554): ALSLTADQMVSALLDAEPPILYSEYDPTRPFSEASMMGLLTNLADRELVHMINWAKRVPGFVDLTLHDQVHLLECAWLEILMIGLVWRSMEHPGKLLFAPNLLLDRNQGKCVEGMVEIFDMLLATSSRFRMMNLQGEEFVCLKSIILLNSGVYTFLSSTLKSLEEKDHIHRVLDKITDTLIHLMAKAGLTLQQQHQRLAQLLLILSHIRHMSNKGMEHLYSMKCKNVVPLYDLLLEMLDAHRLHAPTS
Experimental: The ability of compounds to bind to isolated Estrogen Receptor Alpha Ligand binding domain (ER alpha-LBD (GST)) was assessed in competition assays using a LanthaScreen™ Time-Resolved Fluorescence Resonance Energy Transfer (TR-FRET) detection end-point. For the LanthaScreen TR-FRET endpoint, a suitable fluorophore (Fluormone ES2, ThermoFisher, Product code P2645) and recombinant human Estrogen Receptor alpha ligand binding domain, residues 307-554 (expressed and purified in-house) were used to measure compound binding. The assay principle is that ER alpha-LBD (GST) is added to a fluorescent ligand to form a receptor/fluorophore complex. A terbium-labelled anti-GST antibody (Product code PV3551) is used to indirectly label the receptor by binding to its GST tag, and competitive binding is detected by a test compound's ability to displace the fluorescent ligand, resulting in a loss of TR-FRET signal between the Th-anti-GST antibody and the tracer. The assay was performed as follows with all reagent additions carried out using the Beckman Coulter BioRAPTR FRD microfluidic workstation: • 1. Acoustic dispense 120 nL of the test compound into a black low volume 384 well assay plates. • 2. Prepare 1×ER alpha-LBD/Tb-anti-GST Ab in ES2 screening buffer and incubate for 15 minutes. • 3. Dispense 6 μL of the 1×[…]/Th-anti-GST Ab reagent into each well of the assay plate followed by 6 μL of Fluorophore reagent into each well of the assay plate • 4. Cover the assay plate to protect the reagents from light and evaporation, and incubate at room temperature for 4 hours. • 5. Excite at 337 nm and measure the fluorescent emission signal of each well at 490 nm and 520 nm using the BMG PheraSTAR.
Compounds were dosed directly from a compound source microplate containing serially diluted compound (4 wells containing 10 mM, […] and 10 nM final compound respectively) to an assay microplate using the Labcyte Echo 550. The Echo 550 is a liquid handler that uses acoustic technology to perform direct microplate-to-microplate transfers of DMSO compound solutions and the system can be programmed to transfer multiple small nL volumes of compound from the different source plate wells to give the desired serial dilution of compound in the assay which is then back-filled to normalise the DMSO concentration across the dilution range.
In total 120 nL of compound plus DMSO were added to each well and compounds were tested in a 12-point concentration response format over a final compound concentration range of 10, 2.917, 1.042, 0.2083, 0.1, 0.0292, 0.0104, 0.002083, 0.001, 0.0002917, 0.0001042, and 0.00001 μM respectively. TR-FRET dose response data obtained with each compound was exported into a suitable software package (such as Origin or Genedata) to perform curve fitting analysis. Competitive ER alpha binding was expressed as an IC50 value. This was determined by calculation of the concentration of compound that was required to give a 50% reduction in tracer compound binding to ER alpha-LBD.

Point of comparison: “3-[5-(9-{2-[(1S,3r)-3-({5-[(1R,3R)-2-(2-fluoro-2-methylpropyl)-3-methyl-2,3,4,9-tetrahydro-1H-beta-carbolin-1-yl]pyrimidin-2-yl}oxy)cyclobutyl]ethyl}-3,9-diazaspiro[5.5]undecan-3-yl)-1-oxo-1,3-dihydro-2H-isoindol-2-yl]piperidine-2,6-dione [Example 23]”, IC50 4.4 nM. Against it:
- C[C@@H]1Cc2c([nH]c3ccccc23)[C@@H](c2cnc(N3CCC(CN4CCC5(CC4)CCN(c4ccc6c(c4)CN(C4CCC(=O)NC4=O)C6=O)CC5)CC3)nc2)N1CC(C)(C)F (mixture of isomers) [Example 7, 3-(5-{9-[(1-{5-[(1R,3R)-2-(2-fluoro-2-methylpropyl)-3-methyl-2,3,4,9-tetrahydro-1H-beta-carbolin-1-yl]pyrimidin-2-yl}piperidin-4-yl)methyl]-3,9-diazaspiro[5.5]undecan-3-yl}-1-oxo-1,3-dihydro-2H-isoindol-2-yl)piperidine-2,6-dione] — within 1.5-fold, 4.7 nM
- C[C@@H]1Cc2c([nH]c3ccccc23)[C@@H](c2cnc(N3CCC(CN4CCN(c5ccc6c(c5)CN(C5CCC(=O)NC5=O)C6=O)CC4)CC3)nc2)N1CC(C)(C)F (stereo partly drawn) [Example 1, 3-[5-[4-[[1-[5-[(1R,3R)-2-(2-Fluoro-2-methyl-propyl)-3-methyl-1,3,4,9-tetrahydropyrido[3,4-b]indol-1-yl]pyrimidin-2-yl]-4-piperidyl]methyl]piperazin-1-yl]-1-oxo-isoindolin-2-yl]piperidine-2,6-dione] — within 1.5-fold, 3.1 nM
- C[C@@H]1Cc2c([nH]c3ccccc23)[C@@H](c2cnc(N3CCC(CCN4CCN(c5ccc6c(c5)CN(C5CCC(=O)NC5=O)C6=O)CC4)CC3)nc2)N1CC(C)(C)F (stereo partly drawn) [Example 2, 3-[5-[4-[2-[1-[5-[(1R,3R)-2-(2-Fluoro-2-methyl-propyl)-3-methyl-1,3,4,9-tetrahydropyrido[3,4-b]indol-1-yl]pyrimidin-2-yl]-4-piperidyl]ethyl]piperazin-1-yl]-1-oxo-isoindolin-2-yl]piperidine-2,6-dione] — within 1.5-fold, 3.3 nM
- C[C@@H]1Cc2c([nH]c3ccccc23)[C@@H](c2cnc(N3CCC(CN4CCN(c5ccc6c(c5)C(=O)N(C5CCC(=O)NC5=O)C6=O)CC4)CC3)nc2)N1CC(C)(C)F (stereo partly drawn) [Example 3, 2-[2,6-Dioxo3-piperidyl]-5-[4-[[1-[5-[(1R,3R)-2-(2-fluoro-2-methyl-propyl)-3-methyl-1,3,4,9-tetrahydropyrido[3,4-b]indol-1-yl]pyrimidin-2-yl]-4-piperidyl]methyl]piperazin-1-yl]isoindoline-1,3-dione] — within 1.5-fold, 3.7 nM
- C[C@@H]1Cc2c([nH]c3ccccc23)[C@@H](c2cnc(N3CCC(OCCN4CCN(c5ccc6c(c5)CN(C5CCC(=O)NC5=O)C6=O)CC4)CC3)nc2)N1CC(C)(C)F (stereo partly drawn) [Example 4, 3-[5-[4-[2-[[1-[5-[(1R,3R)-2-(2-Fluoro-2-methyl-propyl)-3-methyl-1,3,4,9-tetrahydropyrido[3,4-b]indol-1-yl]pyrimidin-2-yl]-4-piperidyl]oxy]ethyl]piperazin-1-yl]-1-oxo-isoindolin-2-yl]piperidine-2,6-dione] — 2.1-fold lower, 2.1 nM
- C[C@@H]1Cc2c([nH]c3ccccc23)[C@@H](c2c(F)cc(OCCCCCN3CCN(c4ccc5c(c4)CN(C4CCC(=O)NC4=O)C5=O)CC3)cc2F)N1CC(C)(C)F (stereo partly drawn) [Example 5, 3-[5-[4-[5-[3,5-Difluoro-4-[(1R,3R)-2-(2-fluoro-2-methyl-propyl)-3-methyl-1,3,4,9-tetrahydropyrido[3,4-b]indol-1-yl]phenoxy]pentyl]piperazin-1-yl]-1-oxo-isoindolin-2-yl]piperidine-2,6-dione] — within 1.5-fold, 3.7 nM
- C[C@@H]1Cc2c([nH]c3ccccc23)[C@@H](c2cnc(N3CCC(CN4CCN(CC5CCN(c6ccc7c(c6)CN(C6CCC(=O)NC6=O)C7=O)CC5)CC4)CC3)nc2)N1CC(C)(C)F (some centres unmarked) [Example 6] — within 1.5-fold, 5.6 nM
- C[C@@H]1Cc2c([nH]c3ccccc23)[C@@H](c2cnc(N3CCC(CCCN4CCN(c5ccc6c(c5)CN(C5CCC(=O)NC5=O)C6=O)CC4)CC3)nc2)N1CC(C)(C)F (stereo partly drawn) [Example 8, 3-(5-{4-[3-(1-{5-[(1R,3R)-2-(2-fluoro-2-methylpropyl)-3-methyl-2,3,4,9-tetrahydro-1H-beta-carbolin-1-yl]pyrimidin-2-yl}piperidin-4-yl)propyl]piperazin-1-yl}-1-oxo-1,3-dihydro-2H-isoindol-2-yl)piperidine-2,6-dione] — within 1.5-fold, 4.3 nM
- C[C@@H]1Cc2c([nH]c3ccccc23)[C@@H](c2cnc(N3CCC4(CCN(CC5CCN(c6ccc7c(c6)CN(C6CCC(=O)NC6=O)C7=O)CC5)CC4)CC3)nc2)N1CC(C)(C)F (stereo partly drawn) [Example 9, 3-(5-{4-[(9-{5-[(1R,3R)-2-(2-fluoro-2-methylpropyl)-3-methyl-2,3,4,9-tetrahydro-1H-beta-carbolin-1-yl]pyrimidin-2-yl}-3,9-diazaspiro[5.5]undecan-3-yl)methyl]piperidin-1-yl}-1-oxo-1,3-dihydro-2H-isoindol-2-yl)piperidine-2,6-dione] — 2-fold higher, 8.7 nM
- C[C@@H]1Cc2c([nH]c3ccccc23)[C@@H](c2cnc(N3CCC4(CCN(CCC5CCN(c6ccc7c(c6)CN(C6CCC(=O)NC6=O)C7=O)CC5)CC4)CC3)nc2)N1CC(C)(C)F (stereo partly drawn) [Example 10, 3-(5-{4-[2-(9-{5-[(1R,3R)-2-(2-fluoro-2-methylpropyl)-3-methyl-2,3,4,9-tetrahydro-1H-beta-carbolin-1-yl]pyrimidin-2-yl}-3,9-diazaspiro[5.5]undecan-3-yl)ethyl]piperidin-1-yl}-1-oxo-1,3-dihydro-2H-isoindol-2-yl)piperidine-2,6-dione] — 5.1-fold higher, 22.3 nM
- C[C@@H]1Cc2c([nH]c3ccccc23)[C@@H](c2cnc(N3CCC(CCN4CCC5(CC4)CCN(c4ccc6c(c4)CN(C4CCC(=O)NC4=O)C6=O)CC5)CC3)nc2)N1CC(C)(C)F (stereo partly drawn) [Example 11, 3-(5-{9-[2-(1-{5-[(1R,3R)-2-(2-fluoro-2-methylpropyl)-3-methyl-2,3,4,9-tetrahydro-1H-beta-carbolin-1-yl]pyrimidin-2-yl}piperidin-4-yl)ethyl]-3,9-diazaspiro[5.5]undecan-3-yl}-1-oxo-1,3-dihydro-2H-isoindol-2-yl)piperidine-2,6-dione] — 3.7-fold lower, 1.2 nM
- COc1cc(N2CCN(CCC3CCN(c4ncc([C@@H]5c6[nH]c7ccccc7c6C[C@@H](C)N5CC(C)(C)F)cn4)CC3)CC2)cc2c1C(=O)N(C1CCC(=O)NC1=O)C2 (stereo partly drawn) [Example 12, 3-(5-{4-[2-(1-{5-[(1R,3R)-2-(2-fluoro-2-methylpropyl)-3-methyl-2,3,4,9-tetrahydro-1H-beta-carbolin-1-yl]pyrimidin-2-yl}piperidin-4-yl)ethyl]piperazin-1-yl}-7-methoxy-1-oxo-1,3-dihydro-2H-isoindol-2-yl)piperidine-2,6-dione] — 2.9-fold lower, 1.5 nM
- COc1cc(N2CCN(CCCC3CCN(c4ncc([C@@H]5c6[nH]c7ccccc7c6C[C@@H](C)N5CC(C)(C)F)cn4)CC3)CC2)cc2c1C(=O)N(C1CCC(=O)NC1=O)C2 (stereo partly drawn) [Example 13, 3-(5-{4-[3-(1-{5-[(1R,3R)-2-(2-fluoro-2-methylpropyl)-3-methyl-2,3,4,9-tetrahydro-1H-beta-carbolin-1-yl]pyrimidin-2-yl}piperidin-4-yl)propyl]piperazin-1-yl}-7-methoxy-1-oxo-1,3-dihydro-2H-isoindol-2-yl)piperidine-2,6-dione] — within 1.5-fold, 3 nM
